These results are taken from ChEMBL document CHEMBL1124708, “Glycolipids as host resistance stimulators” (1990).

Values joined by “and” are separate entries in the source; they are usually repeats but may differ in a detail not shown here. Equal values may be shown once.

Test [1] relates to Pseudomonas aeruginosa. Nature of the test: Protective index against Pseudomonas aeruginosa after 40 mg/kg subcutaneous administration pretreated 250 mg/kg cytoxan intraperitoneal on day -4. The test is classed as functional.
Test [2] can be described thus: (§1) Log value of the protective index was calculated. The test is classed as functional.
The species entered for test [3] is Mus musculus. Described as §1. The format is functional, organism-based.
Test [4] is described as follows: as §1.
The subject of test [5] is Pseudomonas aeruginosa. Nature of the test: (§2) No of CFU was determined that cause 50% lethality against Pseudomonas aeruginosa after 40 mg/kg sc administration. The settings on record: route subcutaneous. The test is classed as functional.
The subject of test [6] is Mus musculus. Description: Protective index Pseudomonas aeruginosa after 40 mg/kg sc administration pretreated 250 mg/kg cytoxan ip on day -4. The test is classed as functional.
The test system of test [7] is Mus musculus. The description is as §2. The test is classed as functional. The conditions noted are these: route subcutaneous.
Test [8] concerns Mus musculus. Description: Protective index of Pseudomonas aeruginosa after 40 mg/kg im administration pretreated 250 mg/kg cytoxan ip on day -1. The test is classed as functional.
For test [9], the system named is Mus musculus. Description: Protective index of Pseudomonas aeruginosa after 40 mg/kg sc administration pretreated 250 mg/kg cytoxan ip on day -7. The test is classed as functional.
Test [10] has as its system Mus musculus. Description: Protective index of Pseudomonas aeruginosa after 4 mg/kg sc administration pretreated 250 mg/kg cytoxan ip. The test is classed as functional.
Test [11] has as its system Mus musculus. Nature of the test: Protective index of Pseudomonas aeruginosa after 40 mg/kg im administration pretreated 250 mg/kg cytoxan ip on day -2. The test is classed as functional.
Test [12] relates to Mus musculus. Description: protective index of Pseudomonas aeruginosa after 40 mg/kg im administration pretreated 250 mg/kg cytoxan ip on day -1. The format is functional.
The subject of test [13] is Mus musculus. Description: Protective index of Pseudomonas aeruginosa after 40 mg/kg sc administration pretreated 250 mg/kg cytoxan ip on day -4. The test is classed as functional.
Test [14] has as its system Mus musculus. Nature of the test: Protective index of Pseudomonas aeruginosa after 40 mg/kg ip administration pretreated 250 mg/kg cytoxan ip on day -4. The test is classed as functional.
The test system of test [15] is Mus musculus. Nature of the test: No of CFU was determined that cause 50% lethality against Pseudomonas aeruginosa after 40 mg/kg ip administration. The test is classed as functional. The settings on record: route intraperitoneal.

For `CC(C)CCCC(C)C1CCC2C3CC=C4CC(OCCCCSC5OC(CO)C(O)C(O)C5O)CCC4(C)C3CCC12C` (configuration not stated), the PI in test [1] is listed as 0.84.

In the case of `CC(C)CCCC(C)[C@H]1CC[C@H]2C3CC=C4C[C@@H](OCCCCCCS[C@H]5O[C@@H](CO)[C@@H](O)[C@H](O)[C@H]5O)CC[C@]4(C)[C@H]3CC[C@]12C` (some centres not stated), in test [2], the Log PI was 1.53.

In the case of `CC(C)CCCC(C)C1CCC2C3CC=C4CC(OCCCCCCSC5OCC(O)C(O)C5O)CCC4(C)C3CCC12C` (configuration not stated), the PI in test [1] was found to be 1.01.

With `CC(C)CCCC(C)[C@H]1CC[C@H]2C3CC=C4C[C@@H](OCCCCCCS[C@@H]5O[C@@H](CO)[C@@H](O)[C@H](O)[C@@H]5O)CC[C@]4(C)[C@H]3CC[C@]12C` (stereo in doubt; form 2), the Log PI in test [3] and in test [4] was 0 each time.

On to `CC(=O)NC1C(SCCCCCCOC2CCC3(C)C(=CCC4C3CCC3(C)C(C(C)CCCC(C)C)CCC43)C2)OC(CO)C(O)C1O` (stereo in doubt; form 2) [listing 1 of 2 here], for which the “No. of Colony forming Units” value in test [5] (40 mg/kg) is 56.7 and 75.

As to `COCC1OC(SCCCCCCOC2CCC3(C)C(=CCC4C3CCC3(C)C(C(C)CCCC(C)C)CCC43)C2)C(O)C(O)C1O` (configuration not stated), the PI in [1] is 0.53.

In the case of `CC(C)CCCC(C)C1CCC2C3CC=C4CC(OCCCCCCCCSC5OC(CO)C(O)C(O)C5O)CCC4(C)C3CCC12C` (configuration not stated), the PI in test [1] is 0.58.

Take `CC(C)CCOC(=O)C1CCC2C3CC=C4CC(OCCCCCCSC5OC(CO)C(O)C(O)C5O)CCC4(C)C3CCC12C` (configuration not stated): in test [1], the PI came to 1.01.

As to `CC(=O)NC1C(SCCCCCCOC2CCC3(C)C(=CCC4C3CCC3(C)C(C(C)CCCC(C)C)CCC43)C2)OC(CO)C(O)C1O` (stereo in doubt; form 1) [listing 1 of 2 here], the PI in test [1] was 0.53 and 0.7. In addition, the “No. of Colony forming Units” value in test [5] (40 mg/kg) is 5.67 and 7.5.

With `CC(=O)N[C@@H]1C(O)O[C@@H](CO)[C@@H](O)[C@@H]1O[C@@H](C)C(=O)N[C@@H](C)C(=O)N[C@@H](CCC(=O)O)C(N)=O` (some centres not stated), in [2], the Log PI is 0.27. For the same compound, the PI in test [6] was 1.87 and 1.31; in test [7], 1.31.

Take `CC(C)CCCC(C)[C@H]1CC[C@H]2C3CC=C4C[C@@H](OCCCCCCS[C@@H]5O[C@@H](CO)[C@@H](O)[C@H](O)[C@H]5O)CC[C@]4(C)[C@H]3CC[C@]12C` (some centres not stated): the PI in test [8] came to 2.29; in test [9] it was 4.81; in [10], 2.59; in test [11] it was 9.52; in [12], 2.29. Also, the Log PI in [2] is 4.02.

Regarding `CC(=O)N[C@H]1C(O)O[C@@H](COC(=O)[C@H]2CC[C@@]3(C)C(=CC[C@H]4[C@@H]5CC[C@H]([C@H](C)CCCC(C)C)[C@@]5(C)CC[C@@H]43)C2)[C@@H](O)[C@@H]1O[C@@H](C)C(=O)N[C@@H](C)C(=O)N[C@@H](CCC(=O)O)C(N)=O` (some centres not stated), the PI in [1] is 1000. For the same compound, the “No. of Colony forming Units” value in [5] amounted to 16000.

For `CC(=O)NC1C(SCCCCCCOC2CCC3(C)C(=CCC4C3CCC3(C)C(C(C)CCCC(C)C)CCC43)C2)OC(CO)C(O)C1O` (stereo in doubt; form 1) [listing 2 of 2 here], in test [3], the Log PI was 0.

As to `CC(=O)NC1C(SCCCCCCOC2CCC3(C)C(=CCC4C3CCC3(C)C(C(C)CCCC(C)C)CCC43)C2)OC(CO)C(O)C1O` (stereo in doubt; form 2) [listing 2 of 2 here], the Log PI in test [2] is 0.

As to `CC(C)CCC[C@@H](C)[C@H]1CC[C@H]2[C@@H]3CC=C4C[C@@H](OCCCCCCS[C@@H]5O[C@@H](CO)[C@@H](O[C@@H]6O[C@@H](CO)[C@H](O)[C@H](O)[C@@H]6O)[C@H](O)[C@@H]5O)CC[C@]4(C)[C@H]3CC[C@]12C`, the PI in test [1] is reported as 3.5.

Turning to `CC(C)CCCC(C)[C@H]1CC[C@H]2C3CC=C4C[C@@H](OCCCCCCS[C@@H]5O[C@@H](CO)[C@@H](O)[C@H](O)[C@@H]5O)CC[C@]4(C)[C@H]3CC[C@]12C` (stereo in doubt; form 1) [listing 1 of 2 here], the Log PI in test [2] was 0.

For the compound `CC(C)CCCC(C)[C@H]1CC[C@H]2C3CC=C4C[C@@H](OCCCCCCS[C@@H]5O[C@@H](CO)[C@@H](O)[C@H](O)[C@@H]5O)CC[C@]4(C)[C@H]3CC[C@]12C` (stereo in doubt; form 1) [listing 2 of 2 here], the PI in test [1] is 0.53 and 0.94; in test [13], 2.94; in test [14], 4.75. Moreover, the “No. of Colony forming Units” value in test [15] was 76; in [5] (40 mg/kg), 56.7 and 47 and 101.

For the compound `CC(C)CCCC(C)C1CCC2C3CC=C4CC(OCCCCCCSC5OC(CN)C(O)C(O)C5O)CCC4(C)C3CCC12C` (configuration not stated), in test [1], the PI is listed as 0.98.
